Here are results for 1 compound from article PMC10119423, “From PERK to RIPK1: Design, synthesis and evaluation of novel potent and selective necroptosis inhibitors” (Frontiers in Chemistry, 2023).

One test relates to HT-29. Kind of test: Necroptosis (hTNF + TAK1i + zVAD.fmk) in HT-29 cells, Sytox Green. The conditions noted are these: Homo sapiens, HT-29, read-out: Necroptosis hTNF + TAK1i + zVAD.fmk HT-29 IC50.
In another test the target is T1, RIPK1 (h) (Homo sapiens, UniProt Q13546).
T1 construct: purchased Eurofins Cerep (KinaseProfiler service)
T1 sequence (Q13546 1-671): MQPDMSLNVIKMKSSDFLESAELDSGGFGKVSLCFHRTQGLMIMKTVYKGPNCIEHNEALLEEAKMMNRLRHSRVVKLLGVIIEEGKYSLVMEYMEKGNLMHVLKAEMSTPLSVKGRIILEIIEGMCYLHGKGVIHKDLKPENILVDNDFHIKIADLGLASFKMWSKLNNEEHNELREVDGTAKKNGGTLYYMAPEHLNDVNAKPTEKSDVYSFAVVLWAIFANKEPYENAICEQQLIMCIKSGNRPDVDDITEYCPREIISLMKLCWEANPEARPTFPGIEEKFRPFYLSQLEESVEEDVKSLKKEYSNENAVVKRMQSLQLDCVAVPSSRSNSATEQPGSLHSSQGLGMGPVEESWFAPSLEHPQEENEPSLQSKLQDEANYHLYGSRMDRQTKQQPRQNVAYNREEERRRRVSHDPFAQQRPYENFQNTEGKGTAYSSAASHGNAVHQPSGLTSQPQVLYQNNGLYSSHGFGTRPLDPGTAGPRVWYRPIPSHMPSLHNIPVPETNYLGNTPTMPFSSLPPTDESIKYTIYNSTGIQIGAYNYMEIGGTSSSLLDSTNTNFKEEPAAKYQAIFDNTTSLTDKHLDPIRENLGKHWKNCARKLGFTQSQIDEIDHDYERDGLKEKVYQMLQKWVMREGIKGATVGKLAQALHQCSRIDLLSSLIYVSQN
Description: KinaseProfiler assay (Eurofins Cerep), hRIPK1 inhibition. Type of test: biochemical. The following applies: 9 concentrations (0.0001 μM–1.0 μM), 10 μM ATP. The method, then: RIPK1 (h) is incubated with 8 mM MOPS pH 7.0, 0.2 mM EDTA, 0.33 mg/mL myelin basic protein, 10 mM Magnesium acetate and [γ-^33P-ATP] (specific activity and concentration as required). The reaction is initiated by the addition of the Mg/ATP mix. After incubation for 120 min at room temperature, the reaction is stopped by the addition of phosphoric acid to a concentration of 0.5%.

The next test has as its system MEFs. Description: RIPK1 kinase-dependent apoptosis (hTNF + TAK1i) in MEFs, Sytox Green. Type of test: cell-based. The following applies: Mus musculus, TAK1i + hTNF (100 pg/mL). The text has this:
In MEFs, TNF together with the pan caspases inhibitor zVAD.fmk induces RIPK1-dependent necroptosis while TNF together with TAK1 inhibitor induces RIPK1 kinase-dependent apoptosis. We also included the conditions selected for the Western blot experiments, where necroptosis was induced by the combination of hTNF, zVAD.fmk and TAK1 inhibitor.

Another test concerns the target T2, PERK (Mus musculus, UniProt Q9Z2B5).
T2 construct: Immortalized MEFs were pretreated for 30 min with increasing concentrations of GSK’157 and the indicated compounds and stimulated with tunicamycin; endogenous in cells; host or cells: immortalized mouse embryonic fibroblasts (MEFs, C57Bl6/J)
T2 sequence (Q9Z2B5 29-1114): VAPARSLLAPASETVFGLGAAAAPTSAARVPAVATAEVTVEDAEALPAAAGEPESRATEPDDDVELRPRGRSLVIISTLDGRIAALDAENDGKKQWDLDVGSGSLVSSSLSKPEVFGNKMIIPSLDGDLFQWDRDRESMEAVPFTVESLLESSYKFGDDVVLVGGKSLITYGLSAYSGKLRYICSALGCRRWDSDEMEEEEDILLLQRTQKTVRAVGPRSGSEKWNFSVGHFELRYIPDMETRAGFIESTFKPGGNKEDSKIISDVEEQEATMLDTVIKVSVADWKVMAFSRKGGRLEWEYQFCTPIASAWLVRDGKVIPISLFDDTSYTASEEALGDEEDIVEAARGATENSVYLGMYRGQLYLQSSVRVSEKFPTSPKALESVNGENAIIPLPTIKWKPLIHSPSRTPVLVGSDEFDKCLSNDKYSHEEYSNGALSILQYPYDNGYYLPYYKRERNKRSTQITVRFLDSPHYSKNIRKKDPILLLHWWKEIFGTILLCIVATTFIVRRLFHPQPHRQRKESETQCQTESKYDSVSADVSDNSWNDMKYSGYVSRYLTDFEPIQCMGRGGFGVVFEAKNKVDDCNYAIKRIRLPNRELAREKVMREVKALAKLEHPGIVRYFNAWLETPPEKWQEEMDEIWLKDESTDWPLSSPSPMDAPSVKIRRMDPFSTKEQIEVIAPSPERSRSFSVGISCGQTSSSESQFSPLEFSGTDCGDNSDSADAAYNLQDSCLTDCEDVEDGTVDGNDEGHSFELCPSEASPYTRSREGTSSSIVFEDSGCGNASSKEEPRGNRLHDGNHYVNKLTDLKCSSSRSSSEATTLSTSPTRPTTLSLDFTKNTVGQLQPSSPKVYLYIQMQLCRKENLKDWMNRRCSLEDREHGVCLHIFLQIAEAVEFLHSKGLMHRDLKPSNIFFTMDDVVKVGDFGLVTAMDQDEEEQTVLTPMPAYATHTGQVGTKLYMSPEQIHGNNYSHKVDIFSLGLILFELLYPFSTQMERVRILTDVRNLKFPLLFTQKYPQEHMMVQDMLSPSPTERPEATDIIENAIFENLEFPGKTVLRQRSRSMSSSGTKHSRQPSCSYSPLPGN
Description: PERK autophosphorylation by Western blot in tunicamycin-stimulated immortalized MEFs. It is filed as cell-based. The procedure:
MEFs were seeded in 6-well plates at a density of 300.000 cells/well in 2 mL. The next day, the cells were suspended in 1 mL of medium and pre-treated for 30 min with the indicated compounds at 1/5 dilutions series for PERK ranging from 5 to 0.04 µM and 1 μg/mL of Tm followed by 4 h treatment with 20 ng/mL of hTNF. For RIPK1, the cells were pre-treated at 1/10 dilutions series ranging from 10 to 0.01 nM, 50 µM zVAD.fmk and 1 µM TAKi before stimulation with 20 ng/mL of hTNF for 2.5 h. Then, the cells were washed two times with 1 mL of ice-cold PBS before lysis in 0.2 mL of Laemmli buffer 1x (10% (w/v) SDS, 50% glycerol, 0.5% bromophenol blue, 250 mM Tris–HCl pH 6.8) and 250 mM of dithiothreitol (DTT). The cell lysate was then collected and boiled at 95 °C for 10min and stored at −20°C. Proteins expression was later monitored by immunoblotting.
Their activities were evaluated by comparing the intensity of the signal to unstimulated MEFs (considered as zero phosphorylation) and Tunicamycin stimulated cells (considered as 100% PERK phosphorylation). […] The MEFs were pre-incubated for 30 min with the different compounds (0.01 nM–1000 nM) and then stimulated with human TNF (20 ng/mL) for 2.5 h. Similar to the PERK assessment, IC50 values for RIPK1 inhibition were estimated as a range of concentrations, and are reported in Table 1.

pIC50: −log10 of the molar value.

Description for HT-29: In brief, the cells were seeded in duplicate at 10,000 cells per well in a 96-well adherent plate and incubated overnight at 37°C with 5% CO2. […] All the compound stock solutions were prepared in DMSO at 200 µM concentration. After stimulating the cells with human TNF at 20 ng/mL the plate was transferred to the incubator. Sytox Green intensity was measured in function of time at 0, 14 and 24 h with an excitation filter of 485 nm, an emission filter of 520 nm. The cell death was calculated by subtracting the background fluorescence from the induced Sytox Green fluorescence and by dividing the obtained result by the maximal fluorescence (minus the background fluorescence) obtained by permeabilization of the cells by using Triton X-100 at a final concentration of 0.1%. Curves were plotted in GraphPad 9 for the IC50 calculation.
To induce necroptosis in human colorectal adenocarcinoma cell line (HT-29) together with hTNF and the pan caspases inhibitor zVAD.fmk, TAK1 inhibitor is also needed.

For the compound `Cn1cc(-c2ccc3c(c2F)CCN3C(=O)Cc2ccc(C(F)(F)F)cn2)c2c(N)ncnc21` [Compound 22], the pIC50 is 8.19 in the test on HT-29; 6.86 on RIPK1 (h); 8.48 in the test on MEFs; < 5.30 at PERK (immortalized MEFs, 30 min pretreatment, tunicamycin 1 μg/ml for 4 h, PERK autophosphorylation, read-out: PERK inhibition (IC50 estimated from a Western blot)). Besides, at PERK (MEFs, Western blot, 0.04, 0.2, 1 and 5 µM, highest concentration tested 5 µM), the “PERK inhibition at the tested concentrations (in words)” value was “no PERK inhibition”.
